{"source": "paper PMC8218751", "about": "“Visualizing Borrelia burgdorferi Infection Using a Small-Molecule Imaging Probe” (Journal of Clinical Microbiology, 2021)", "key": {"E. coli HtpG": {"molecular_target": "T1, E. coli HtpG (Escherichia coli, UniProt P0A6Z3)", "T1 construct": "His6 (N); made in house; host or cells: E. coli BL21(DE3)", "T1 sequence (P0A6Z3 whole entry)": "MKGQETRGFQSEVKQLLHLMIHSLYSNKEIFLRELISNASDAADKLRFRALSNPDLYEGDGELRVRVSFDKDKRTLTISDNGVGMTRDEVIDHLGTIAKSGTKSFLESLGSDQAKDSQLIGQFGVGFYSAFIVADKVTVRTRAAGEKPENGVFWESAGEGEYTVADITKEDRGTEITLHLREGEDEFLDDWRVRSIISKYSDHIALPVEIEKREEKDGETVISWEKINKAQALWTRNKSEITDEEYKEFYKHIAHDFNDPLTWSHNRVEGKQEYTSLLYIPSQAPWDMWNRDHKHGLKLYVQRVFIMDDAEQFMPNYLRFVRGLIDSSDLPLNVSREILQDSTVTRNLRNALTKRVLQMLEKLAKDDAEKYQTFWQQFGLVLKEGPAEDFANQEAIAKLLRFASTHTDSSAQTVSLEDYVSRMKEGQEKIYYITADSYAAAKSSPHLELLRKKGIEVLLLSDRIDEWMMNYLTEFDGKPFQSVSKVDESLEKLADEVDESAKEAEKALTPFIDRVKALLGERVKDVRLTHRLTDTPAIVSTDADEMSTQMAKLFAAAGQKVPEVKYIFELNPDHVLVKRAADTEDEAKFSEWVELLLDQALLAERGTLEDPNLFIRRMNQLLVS", "test": "biochemical", "type": "binding", "experimental": "Escherichia coli (strain BL21/DE3) genomic DNA was isolated from a lab culture generated from the cloning/expression bacterium (ThermoFisher catalog no. EC0114) by overnight proteinase K digestion at 56°C, high-salt clarification, and ethanol precipitation. […] Human Hsp90-alpha sequences were derived from cDNA generated from total mRNA of the human breast epithelial line, MCF10A. HtpG DNA sequences were PCR cloned from these DNAs using primers designed to allow in-frame cloning with GFP in the isopropyl-β-D-thiogalactopyranoside (IPTG)-inducible bacterial expression vector. […] Fusion protein cloning was done using the ligation-independent cloning procedure via single-nucleotide T4 DNA polymerase treatment of vector and purified PCR products followed by annealing of complementary single-strand ends before transformation into DH5 E. coli. […] Fusion protein synthesis was induced by incubation with 1 mM IPTG or autoinduction ([17]).\nγ-linked ATP Sepharose matrix was generated as described previously by the Haystead lab ([18]). […] The clarified lysate was added to a column containing ATP-bound Sepharose. The column was washed with low-salt buffer (150 mM NaCl, 25 mM HEPES, pH 7.4, 1 mM dithiothreitol [DTT], and 60 mM MgCl2), followed by high-salt buffer (1 M NaCl, 25 mM HEPES, pH 7.4, 1 mM DTT, 0.1% IGEPAL, and 60 mM MgCl2) and once again low-salt buffer to remove unbound protein. Next, the resin with bound proteins (50 μl) was transferred to a 0.2-μm polyvinylidene fluoride filter 96-well plate (Corning) sitting on top of a black flat-bottomed 96-well catch plate (Corning). […] The eluted proteins were measured in a fluorescent plate reader to detect the GFP.\nSubtle single amino acid differences are present within the catalytic clefts of these proteins, especially between residues that contact the nucleotide. […] We therefore reasoned that these differences may be sufficient to design small molecules that can similarly discriminate HtpG of stealth organisms. To test this hypothesis, we utilized a fluorescent-linked enzyme chemoproteomic strategy (FLECS) assay to test known Hsp90 inhibitors ([18]) for binding to various HtpG constructs. First, we cloned and expressed in E. coli recombinant N-terminal GFP-fusion forms of HtpG from B. burgdorferi, E. coli, and Treponema denticola, the oral spirochete, as well as human Hsp90. We then incubated lysate after protein expression with an ATP Sepharose resin to enable binding. In this assay, ATP is tethered to Sepharose beads via its γ-phosphate, enabling the nucleotide to bind to ATP binding proteins such as Hsp90 and HtpG, but is nonhydrolyzable ([24]). After proteins are bound to the ATP Sepharose resin, small molecules with affinity for the ATP binding site will elute the GFP-fusion protein, which can readily be detected and quantified on a plate fluorometer.\nThese compounds were selected for testing based on their known binding to human Hsp90 ([25], [26])."}, "B. burgdorferi": {"system": "B. burgdorferi", "test": "Fixed or denatured B. burgdorferi imaging, flagellin costaining and CLEM", "type": "cell-based, Borrelia burgdorferi", "experimental": "Bacterial cultures in logarithmic phase were washed and resuspended in phosphate-buffered saline (PBS). Suspension was added to a positively charged slide, and an equal volume of 3:1 methanol-acetic acid was added to the suspension for 5 min. Slides were washed with 0.01% Tween 20/PBS (PBS-T) followed by PBS. Ten percent nonfat dry milk/PBS blocking solution was added for 45 min. Slides were washed with PBS and incubated for 45 min with 1:500 flagellin antibody (Rockland 200-401-C14) diluted in 1% nonfat dry milk/PBS. Slides were washed with PBS-T and then incubated for 30 min with FITC-conjugated anti-rabbit (Invitrogen catalog number A11008; 1:500 dilution), containing 10 μM HS-198. […].\nCorrelative light electron microscopy (CLEM) was performed by Shannon Modla and Jeff Caplan at the bioimaging center of the Delaware Biotechnology Institute. Cells were attached to an Ibidi μ-dish containing an imprinted 500-μm cell location grid using 4% paraformaldehyde (PFA) for 20 min. Cells were then incubated with 10 μM HS-198 for 10 min followed by a PBS wash. PBS filled the dish to the top for transport to the Delaware Institute for further processing. The cells were then imaged using Zeiss 880 Airyscan. […]"}}}
{"smiles": "Cc1nn(-c2ccc(C(=O)N(C)C)c(NCCCOCCOCCOCCOCCOCCCNCc3ccc(C(=C\\C=C4/N(CCCCS(=O)(=O)O)c5ccccc5C4(C)C)/C=C/C4=[N+](CCCCS(=O)(=O)[O-])c5ccccc5C4(C)C)cc3)c2)c2c1C(=O)CC(C)(C)C2", "note": "[HS-198]", "values": [{"measurement": "Kd", "setting": "E. coli HtpG", "result": "5.8 ± 0.6", "unit": "µM"}, {"measurement": "Release of E. coli GFP-HtpG from ATP Sepharose", "setting": "E. coli HtpG; in words", "result": "released"}, {"measurement": "Localization within the spirochete", "setting": "B. burgdorferi; 10 μM, flagellin antibody costaining, CLEM", "result": "accumulated inside the protoplasmic cylinder"}, {"measurement": "Staining of denatured spirochetes", "setting": "B. burgdorferi; heat denaturation (5 min at 90°C or 15 min at 50°C) or alcohol fixation (2:1 ethanol), data not shown", "result": "capable of staining spirochetes"}]}
